Laboratory results published in patent US20030144213A1, “Combination therapy of angiotensin converting enzyme inhibitor, side-effect reduced amount of aldosterone antagonist and diuretic for treatment of cardiovascular disease” (G.D. Searle & Co., priority 1996, published 2003).

Key:
hypertensive patients = details: cited from earlier work
[1] = system: patients with symptomatic heart failure; assay: Spironolactone dose-ranging clinical trial (12 weeks, added to ACE inhibitor, loop diuretic, optional digitalis)
[2] = system: myocardial fibrosis in animal models; details: cited from earlier work
hypertensive-rat cohort = details: sub-cutaneously; hypertensive rats; cited from earlier work
[3] = system: patients afflicted with congestive heart failure; details: coadministered with an ACE inhibitor; cited from earlier work

Row | SMILES | Plasma aldosterone despite continued ACE inhibition (hypertensive patients) | Likelihood of hyperkalemia on captopril vs another ACE-I ([1]; background ACE-I) | Myocardial fibrosis [2] | Fibrosis (hypertensive-rat cohort) | Patients in whom highly effective [3] | Mean systolic and diastolic blood pressure (standing and supine) ([1]; 25 mg, 50 mg and 75 mg groups, all visits) | Change from baseline in body weight ([1]; 75 mg dose group, Day 9 and Week 4) | Change from baseline in PRA, dose-response ([1]; Day 9, Week 4 and Week 12 (P≦0.001)) | Change from baseline in serum magnesium ([1]; Day 9 and Week 4 (p≦0.048), not at later visits) | Change from baseline in supine pulse, dose response ([1]; Week 4 (p-value=0.045)) | Hematocrit and hemoglobin vs placebo ([1]; Week 12 (p=0.002; 0.005)) | Urinary aldosterone excretion, dose response ([1]; Week 12 vs baseline (p=0.002)) | N-Terminal Atrial Natriuretic Factor (ANF) change ([1]; all active treatments, Day 9, Week 4, Week 12) | Deaths during the drug treatment period ([1]; all doses, 12 weeks) | Change from baseline in serum potassium, dose-response ([1]; all treatment period visits (p<0.001)) | Hyperkalemia adverse event, dose-response of incidence ([1]; p=0.001) | Patients who died within 30 days after the study was completed ([1]; previously at the 50 mg dose) | NYHA Class improvement ([1]; vs placebo, not statistically significant)
1 | C[C@H](CS)C(=O)N1CCC[C@H]1C(=O)O [Captopril, captopril] | gradual return of plasma aldosterone to baseline levels | about one-third as likely to develop hyperkalemia |  |  |  |  |  |  |  |  |  |  |  |  |  |  |  | 
2 | CC(=O)S[C@@H]1CC2=CC(=O)CC[C@]2(C)[C@H]2CC[C@@]3(C)[C@@H](CC[C@@]34CCC(=O)O4)[C@H]12 [Spironolactone, 17-hydroxy-7α-mercapto-3-oxo-17α-pregn-4-ene-21-carboxylic acid γ-lactone acetate] |  |  | prevents myocardial fibrosis in animal models | prevent fibrosis in the hypertensive-rat cohort | 13 of 16 | decreases in mean systolic and diastolic blood pressure | more weight loss than other patients | higher doses of spironolactone associated with greater increases in PRA | statistically significant dose-response | greater decreases in pulse in the supine position at higher doses | lower levels for the active treatment groups | Greater increases were seen at higher doses of spironolactone | decreases from baseline at all treatment visits | No deaths | Higher doses of spironolactone were associated with larger increases in potassium | clear dose-response in term of incidence | Three | trend toward improvement
